{"source": "paper PMC10845205", "about": "“Discovery of novel antibacterial agent for the infected wound treatment: all-hydrocarbon stapling optimization of LL-37” (Theranostics, 2024)", "key": {"Serum stability assay": {"assay": "Serum stability assay", "type": "in vitro ADME, human", "conditions": "human serum, 2 mg/mL peptide in pH 7.4 PBS mixed with serum 1:4, 37 °C, up to 48 h, RP-HPLC UV 220 nm, 3 independent measurements", "excerpt": "Maintaining high stability and presenting high compatibility in the complex physiological environment are important criterions for the clinical translation of AMPs. […] The derivatives were mixed with human serum in pH 7.4 PBS, simulating the degradation process of peptides by proteases in vivo. The percentages of intact derivatives were monitored and determined with time according to the PR-HPLC. […]\nSerum stability of the linear and stapled peptides was examined by RP -HPLC as previously described. 2 mg/mL peptide solution was prepared in pH 7.4 PBS and incubated with human serum (Gemini, USA) to the final volume ratio of 1:4 at 37 °C.\nAt various time intervals, 50 μL mixture was added to 50 μL ethanol to terminate the enzymatic hydrolysis. After centrifugation at 10,000 rpm for 10 minutes under 4 °C, […]\nthe supernatant was collected and analyzed by RP-HPLC, with a UV detector monitored at 220 nm. Record the peak area of the intact peptide and calculate the percentage of remaining peptide based on the integrated area as, Peptide remaining (%) = peak area of remaining peptide/peak area of intact peptide×100%. […]"}, "P. aeruginosa": {"system": "P. aeruginosa", "conditions": "CLSI broth microdilution, MH-II broth, 24 h 37 °C, AlamarBlue; ATCC 27853; 3 independent measurements", "protocol": "(§1) According to the protocol of Clinical & Laboratory Standards Institute, the minimum inhibitory concentration (MIC) of the linear and stapled peptides against a panel of gram-positive and gram-negative bacteria was determined by the broth microdilution method. […]\n(§2) Bacterial strains and culture\n(§3) Bacterial type stains ATCC 25923 S. aureus, ATCC 12228 S. epidermidis, ATCC […]\n(§4) aeruginosa and ATCC 13883 K. pneumoniae were obtained from Shanghai Bioresource Collection Center. The bacterial culture medium was purchased from Oxoid and autoclaved according to the instructions from manufacturer. The isolated strains were cultured in Mueller Hinton II broth and continuously shaken at 140 rpm for 18 hours to the middle of the exponential growth phase at 37 °C with an OD value of 0.4-0.5.\n(§5) Bacterial suspensions with an OD value of 0.1, approximately […], were then diluted for further assays.\n(§6) The minimal inhibition concentration (MIC) of the linear and stapled peptides was determined using the microbroth dilution method from the Clinical and Laboratory Standards Institute (CLSI)[2, 3]. Bacterial suspensions of 10 6 CFU/mL were prepared in MH-II broth and peptide solutions at varying concentrations were prepared in phosphate buffer saline (PBS). Then 50 μL peptide solution and 50 μL bacterial suspension were mixed in a 96 -well plate. Plates were incubated for 24 hours at 37 °C.\n(§7) 10 μL AlamarBlue cell viability reagent (ThermoFisher Scientific, UK) was added to each well, then the plate was re -incubated for a further 2 hours at 37 °C. The MIC was recorded as the minimum concentration of peptides required to completely in hibit bacteria growth. For serum stability assessment, the peptide solutions were pre - incubated with 50% human serum for 4 h before the MIC determination. Experiments were performed in 3 independent measurements. […]"}, "E. faecalis": {"system": "E. faecalis", "conditions": "CLSI broth microdilution, MH-II broth, 24 h 37 °C, AlamarBlue; ATCC 29212; 3 independent measurements", "protocol": "as §1, §2, §3, §4, §5, §6, §7"}, "K. pneumoniae": {"system": "K. pneumoniae", "conditions": "CLSI broth microdilution, MH-II broth, 24 h 37 °C, AlamarBlue; ATCC 13883; 3 independent measurements", "protocol": "as §1, §2, §3, §4, §5, §6, §7"}, "S. epidermidis": {"system": "S. epidermidis", "conditions": "CLSI broth microdilution, MH-II broth, 24 h 37 °C, AlamarBlue; ATCC 12228; 3 independent measurements", "protocol": "as §1, §2, §3, §4, §5, §6, §7"}, "S. aureus": {"system": "S. aureus", "conditions": "CLSI broth microdilution, MH-II broth, 10^6 CFU/mL, 24 h 37 °C, AlamarBlue; ATCC 25923; 3 independent measurements", "protocol": "as §1, §2, §3, §4, §5, §6, §7"}, "A. baumannii": {"system": "A. baumannii", "conditions": "CLSI broth microdilution, MH-II broth, 24 h 37 °C, AlamarBlue; ATCC 19606; 3 independent measurements", "protocol": "as §1, §2, §3, §4, §5, §6, §7"}, "E. coli": {"system": "E. coli", "conditions": "CLSI broth microdilution, MH-II broth, 24 h 37 °C, AlamarBlue; ATCC 25922; 3 independent measurements", "protocol": "as §1, §2, §3, §4, §5, §6, §7"}}, "note": "Positions of bridges follow the written chain, without caps; N, C: chain ends. Non-standard residues stand in square brackets, D forms with d. Residues, ends and D or L forms follow the SMILES beside them. S5 = C=CCCC[C@](C)(N)C(=O)O", "data": [{"smiles": "CC[C@H](C)[C@H](NC(=O)[C@H](CCCNC(=N)N)NC(=O)[C@H](CCCCN)NC(C)=O)C(=O)N[C@H](C(=O)N[C@@H](CCC(N)=O)C(=O)N[C@@H](CCCNC(=N)N)C(=O)N[C@H](C(=O)N[C@@]1(C)CCCC=CCCC[C@@](C)(C(N)=O)NC(=O)[C@H](CC(C)C)NC(=O)[C@H](Cc2ccccc2)NC(=O)[C@H](CC(=O)O)NC1=O)[C@@H](C)CC)C(C)C", "note": "[KR-12 (K8, R12)] (Ac-KRIVQRI[S5]DFL[S5]-NH2; staple 8-12)", "values": [{"measurement": "TD50 (time at which 50% of the peptide is degraded in the presence of serum)", "setting": "Serum stability assay", "result": 18.28, "unit": "h"}, {"measurement": "MIC P. aeruginosa", "setting": "P. aeruginosa", "result": 256, "unit": "µg/mL"}, {"measurement": "MIC E. faecalis", "setting": "E. faecalis", "result": 16, "unit": "µg/mL"}, {"measurement": "MIC K. pneumoniae", "setting": "K. pneumoniae", "result": "> 256", "unit": "µg/mL"}, {"measurement": "MIC S. epidermidis", "setting": "S. epidermidis", "result": 16, "unit": "µg/mL"}, {"measurement": "MIC S. aureus", "setting": "S. aureus", "result": 16, "unit": "µg/mL"}, {"measurement": "MIC A. baumannii", "setting": "A. baumannii", "result": 16, "unit": "µg/mL"}, {"measurement": "MIC E. coli", "setting": "E. coli", "result": 64, "unit": "µg/mL"}]}]}
